ChEMBL document CHEMBL5291721, “A preclinical secondary pharmacology resource illuminates target-adverse drug reaction associations of marketed drugs” (Nat Commun, 2023)

Legend:
[1] = biological target: T1, Alpha-2C adrenergic receptor (Homo sapiens, UniProt P18825); format: functional
T1 sequence (P18825 whole entry): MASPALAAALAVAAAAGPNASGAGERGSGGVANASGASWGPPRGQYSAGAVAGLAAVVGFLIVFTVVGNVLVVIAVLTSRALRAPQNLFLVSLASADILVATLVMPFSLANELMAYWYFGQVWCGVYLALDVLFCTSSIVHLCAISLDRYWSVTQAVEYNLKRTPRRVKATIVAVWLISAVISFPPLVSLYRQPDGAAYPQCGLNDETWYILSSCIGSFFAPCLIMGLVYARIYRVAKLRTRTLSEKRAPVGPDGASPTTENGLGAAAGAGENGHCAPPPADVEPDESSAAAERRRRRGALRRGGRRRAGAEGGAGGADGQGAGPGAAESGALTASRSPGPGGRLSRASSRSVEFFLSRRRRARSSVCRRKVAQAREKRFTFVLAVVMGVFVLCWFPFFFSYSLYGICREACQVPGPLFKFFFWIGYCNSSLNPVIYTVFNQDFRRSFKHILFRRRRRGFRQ

[2] = biological target: T2, Type-1 angiotensin II receptor (Homo sapiens, UniProt P30556)
T2 sequence (P30556 whole entry): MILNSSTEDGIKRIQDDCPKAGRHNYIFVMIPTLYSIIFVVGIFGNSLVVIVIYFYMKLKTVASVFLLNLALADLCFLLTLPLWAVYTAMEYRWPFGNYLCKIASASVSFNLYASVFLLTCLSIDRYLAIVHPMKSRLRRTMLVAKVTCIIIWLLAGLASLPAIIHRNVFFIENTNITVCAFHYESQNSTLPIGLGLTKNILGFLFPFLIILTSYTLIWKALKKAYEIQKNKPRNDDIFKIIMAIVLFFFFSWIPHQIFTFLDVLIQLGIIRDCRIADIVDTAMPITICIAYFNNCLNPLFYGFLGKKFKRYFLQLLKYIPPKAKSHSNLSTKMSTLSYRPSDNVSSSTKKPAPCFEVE

[3] = biological target: T3, Cholecystokinin receptor type A (Homo sapiens, UniProt P32238)
T3 sequence (P32238 whole entry): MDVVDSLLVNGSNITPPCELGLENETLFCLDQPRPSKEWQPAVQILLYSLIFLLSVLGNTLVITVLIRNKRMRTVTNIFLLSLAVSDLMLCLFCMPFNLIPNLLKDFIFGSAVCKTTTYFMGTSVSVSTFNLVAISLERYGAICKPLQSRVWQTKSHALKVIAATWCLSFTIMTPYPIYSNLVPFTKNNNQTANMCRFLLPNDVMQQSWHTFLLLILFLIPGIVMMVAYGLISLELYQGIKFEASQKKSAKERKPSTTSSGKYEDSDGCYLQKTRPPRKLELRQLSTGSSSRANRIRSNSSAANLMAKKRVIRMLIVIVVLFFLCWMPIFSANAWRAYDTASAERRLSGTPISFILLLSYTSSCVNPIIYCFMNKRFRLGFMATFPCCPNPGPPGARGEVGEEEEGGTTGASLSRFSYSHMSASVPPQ

[4] = biological target: T4, Muscarinic acetylcholine receptor M2 (Homo sapiens, UniProt P08172); format: functional, cell-based
T4 sequence (P08172 whole entry): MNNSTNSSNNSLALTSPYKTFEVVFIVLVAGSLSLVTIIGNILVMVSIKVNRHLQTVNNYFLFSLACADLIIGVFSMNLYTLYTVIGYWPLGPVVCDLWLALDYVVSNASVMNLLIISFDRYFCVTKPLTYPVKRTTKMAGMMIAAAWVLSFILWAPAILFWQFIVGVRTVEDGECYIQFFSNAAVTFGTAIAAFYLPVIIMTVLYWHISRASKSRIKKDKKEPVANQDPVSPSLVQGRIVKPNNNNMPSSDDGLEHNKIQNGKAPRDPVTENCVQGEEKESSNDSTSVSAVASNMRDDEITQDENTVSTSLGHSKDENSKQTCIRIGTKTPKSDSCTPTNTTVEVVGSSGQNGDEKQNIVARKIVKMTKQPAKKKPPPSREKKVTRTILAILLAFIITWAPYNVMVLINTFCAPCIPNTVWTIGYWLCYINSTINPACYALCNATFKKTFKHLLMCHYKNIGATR

[5] = biological target: Gamma-aminobutyric acid receptor subunit alpha-1 (Rattus norvegicus, UniProt P62813)
Histamine H2 receptor = Histamine H2 receptor (Homo sapiens, UniProt P25021); format: functional, cell-based
[6] = biological target: T5, 5-hydroxytryptamine receptor 3A (Homo sapiens, UniProt P46098); format: functional
T5 sequence (P46098 whole entry): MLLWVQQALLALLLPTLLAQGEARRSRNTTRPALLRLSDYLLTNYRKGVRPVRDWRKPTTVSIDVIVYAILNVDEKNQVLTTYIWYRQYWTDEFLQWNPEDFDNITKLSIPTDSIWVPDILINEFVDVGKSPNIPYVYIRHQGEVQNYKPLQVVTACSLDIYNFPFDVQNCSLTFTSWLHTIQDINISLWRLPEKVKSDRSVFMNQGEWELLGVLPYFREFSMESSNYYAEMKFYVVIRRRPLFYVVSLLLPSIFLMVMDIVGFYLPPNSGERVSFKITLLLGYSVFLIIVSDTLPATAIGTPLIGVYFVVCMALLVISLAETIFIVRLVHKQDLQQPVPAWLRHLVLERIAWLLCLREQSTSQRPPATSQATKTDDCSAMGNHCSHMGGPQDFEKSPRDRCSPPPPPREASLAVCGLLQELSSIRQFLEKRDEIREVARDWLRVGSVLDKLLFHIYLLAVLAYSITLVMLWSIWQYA

Motilin receptor = Motilin receptor (Homo sapiens, UniProt O43193)
Mu-type opioid receptor = Mu-type opioid receptor (Homo sapiens, UniProt P35372); experiment: biochemical; format: functional
Thromboxane A2 receptor = biological target: T6, Thromboxane A2 receptor (Homo sapiens, UniProt P21731)
T6 sequence (P21731 whole entry): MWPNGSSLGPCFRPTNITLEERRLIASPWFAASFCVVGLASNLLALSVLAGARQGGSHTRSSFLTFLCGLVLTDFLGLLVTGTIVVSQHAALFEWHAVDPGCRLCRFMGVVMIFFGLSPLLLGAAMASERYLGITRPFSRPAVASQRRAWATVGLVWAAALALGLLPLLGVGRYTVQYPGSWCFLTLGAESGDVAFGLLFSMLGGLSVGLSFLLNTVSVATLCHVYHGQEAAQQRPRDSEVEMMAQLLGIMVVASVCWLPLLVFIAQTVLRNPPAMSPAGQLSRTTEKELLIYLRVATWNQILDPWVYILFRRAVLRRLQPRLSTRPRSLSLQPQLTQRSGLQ
Note: assay procedure not described here.

Sequence of Gamma-aminobutyric acid receptor subunit alpha-1 (P62813 whole entry): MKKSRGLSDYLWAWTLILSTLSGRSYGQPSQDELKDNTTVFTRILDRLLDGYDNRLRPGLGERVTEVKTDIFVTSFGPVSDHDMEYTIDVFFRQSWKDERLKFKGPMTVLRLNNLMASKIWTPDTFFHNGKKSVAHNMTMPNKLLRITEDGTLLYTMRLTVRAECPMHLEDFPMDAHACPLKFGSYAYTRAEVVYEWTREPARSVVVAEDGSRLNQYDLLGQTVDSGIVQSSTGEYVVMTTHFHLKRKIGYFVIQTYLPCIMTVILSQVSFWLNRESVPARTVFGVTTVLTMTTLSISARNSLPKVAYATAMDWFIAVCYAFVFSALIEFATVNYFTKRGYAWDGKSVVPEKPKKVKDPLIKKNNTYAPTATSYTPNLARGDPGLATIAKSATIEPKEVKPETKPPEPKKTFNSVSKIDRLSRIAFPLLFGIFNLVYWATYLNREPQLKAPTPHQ
Sequence of Histamine H2 receptor (P25021 whole entry): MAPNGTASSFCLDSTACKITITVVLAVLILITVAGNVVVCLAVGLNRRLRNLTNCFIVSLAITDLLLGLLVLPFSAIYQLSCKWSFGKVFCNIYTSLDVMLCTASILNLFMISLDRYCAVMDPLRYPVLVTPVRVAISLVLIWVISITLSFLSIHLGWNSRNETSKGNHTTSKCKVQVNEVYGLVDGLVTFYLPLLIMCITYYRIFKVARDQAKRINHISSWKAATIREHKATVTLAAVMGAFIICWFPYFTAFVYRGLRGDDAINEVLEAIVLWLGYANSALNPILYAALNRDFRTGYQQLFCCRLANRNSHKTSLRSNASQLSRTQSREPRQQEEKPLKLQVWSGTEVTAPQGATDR
Sequence of Motilin receptor (O43193 whole entry): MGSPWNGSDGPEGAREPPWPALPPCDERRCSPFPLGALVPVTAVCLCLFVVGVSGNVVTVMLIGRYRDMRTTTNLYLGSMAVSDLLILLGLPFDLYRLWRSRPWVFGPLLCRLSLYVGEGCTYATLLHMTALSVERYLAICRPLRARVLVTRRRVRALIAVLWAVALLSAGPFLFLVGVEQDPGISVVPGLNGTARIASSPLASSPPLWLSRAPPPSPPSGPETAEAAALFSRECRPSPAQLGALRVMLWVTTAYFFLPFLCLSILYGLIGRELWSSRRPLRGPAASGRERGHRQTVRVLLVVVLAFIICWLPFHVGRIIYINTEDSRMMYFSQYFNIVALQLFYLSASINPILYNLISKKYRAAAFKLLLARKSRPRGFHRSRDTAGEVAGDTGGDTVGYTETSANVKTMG
Sequence of Mu-type opioid receptor (P35372 whole entry): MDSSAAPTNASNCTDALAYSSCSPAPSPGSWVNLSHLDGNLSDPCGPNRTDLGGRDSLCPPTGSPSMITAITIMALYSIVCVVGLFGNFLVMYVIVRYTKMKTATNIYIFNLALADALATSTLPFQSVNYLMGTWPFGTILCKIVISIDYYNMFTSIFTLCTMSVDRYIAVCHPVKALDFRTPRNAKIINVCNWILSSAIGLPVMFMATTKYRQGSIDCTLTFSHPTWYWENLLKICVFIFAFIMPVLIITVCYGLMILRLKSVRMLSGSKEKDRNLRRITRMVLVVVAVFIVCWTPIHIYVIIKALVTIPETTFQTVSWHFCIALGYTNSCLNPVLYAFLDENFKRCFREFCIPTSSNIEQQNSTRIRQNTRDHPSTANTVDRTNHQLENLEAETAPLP

AC50 [1] | AC50 [2] | AC50 [3] | AC50 [4] | AC50 [5] | AC50 (Histamine H2 receptor) | AC50 [6] | AC50 (Motilin receptor) | AC50 (Mu-type opioid receptor) | AC50 (Thromboxane A2 receptor) | Compound
> 10 µM | > 10 µM | > 10 µM | > 10 µM | > 10 µM | > 10 µM | > 30 µM | > 10 µM | > 30 µM | > 10 µM | CN1CCCN=C1COC(=O)C(O)(c1ccccc1)C1CCCCC1 (stereo not given) [OXYPHENCYCLIMINE]
> 30 µM | > 30 µM | > 30 µM | > 30 µM | > 30 µM | > 30 µM | > 30 µM | > 30 µM | > 30 µM | > 30 µM | Cc1nc2ccc(CN(C)c3ccc(C(=O)N[C@@H](CCC(=O)O)C(=O)O)s3)cc2c(=O)[nH]1 [RALTITREXED]
21 µM | > 30 µM | > 30 µM | > 30 µM | > 30 µM | > 30 µM | > 30 µM | > 30 µM | > 30 µM | > 30 µM | C#CCN[C@@H]1CCc2ccccc21 [RASAGILINE]
> 30 µM | > 30 µM | > 30 µM | > 30 µM | > 30 µM | > 30 µM | > 30 µM | > 30 µM | > 30 µM | > 30 µM | Cc1c(Cl)cccc1Nc1ccccc1C(=O)O [TOLFENAMIC ACID]
> 30 µM | > 30 µM | > 30 µM | > 30 µM | > 30 µM | > 30 µM | > 30 µM | > 30 µM | > 30 µM | > 30 µM | COc1ccc(C(=O)N2CCN(c3ccc4c(c3)CCC(=O)N4)CC2)cc1OC [VESNARINONE]
> 30 µM | > 30 µM | > 30 µM | > 30 µM | > 30 µM | > 30 µM | > 30 µM | 4.8 µM | > 30 µM | > 30 µM | CC[C@]1(O)C[C@@H]2CN(CCc3c([nH]c4ccccc34)[C@@](C(=O)OC)(c3cc4c(cc3OC)N(C)[C@H]3[C@@](O)(C(N)=O)[C@H](O)[C@]5(CC)C=CCN6CC[C@]43[C@@H]65)C2)C1 [VINDESINE]
> 30 µM | > 30 µM | > 30 µM | > 30 µM | > 30 µM | > 30 µM | > 30 µM | > 30 µM | > 30 µM | > 30 µM | TOCOFERSOLAN
